Test system: Wnt signaling
Assay: TopFlash reporter gene bioassay in SW480 cells
Format: cell-based
Settings: Homo sapiens, SW480, 24 h, SW480 cells, 24 hours treatment, luciferase assay; read-out: IC50 for SW480 cells, TopFlash reporter gene bioassay

SMILES	IC50 [µM]
C=CCN1CC(=O)N2[C@@H](Cc3ccc(O)cc3)C(=O)N(Cc3cccc(Br)c3)C[C@@H]2N1C(=O)NCc1ccccc1 [Compound F]	0.73 ± 0.08

Same assay, conditions: Homo sapiens, SW480, TopFlash reporter gene assay, inhibition of Wnt signaling; read-out: RGA, IC50 (μM) TopF

SMILES	IC50 [µM]
C=CCN1CC(=O)N2[C@@H](Cc3ccc(O)cc3)C(=O)N(Cc3cccc(C(=O)NNC(=O)OC(C)(C)C)c3)C[C@@H]2N1C(=O)NCc1ccccc1 [compound 210]	3.57 ± 0.89
C=CCN1CC(=O)N2[C@@H](Cc3ccc(O)cc3)C(=O)N(Cc3cccc4c3ncn4CC(N)=O)C[C@@H]2N1C(=O)NCc1ccccc1 [compound 267]	6.63 ± 1.35
C=CCN1CC(=O)N2[C@@H](Cc3ccc(O)cc3)C(=O)N(Cc3cccc4c3OC(F)(F)O4)C[C@@H]2N1C(=O)NCc1ccccc1 [compound 124]	1.56 ± 0.33
C=CCN1CC(=O)N2[C@@H](Cc3ccc(O)cc3)C(=O)N(Cc3cccnc3C3CC3)C[C@@H]2N1C(=O)NCc1ccccc1 [compound 108]	1.31 ± 0.33
C=CCN1CC(=O)N2[C@@H](Cc3ccc(O)cc3)C(=O)N(Cc3cccc(NC(N)=O)c3)C[C@@H]2N1C(=O)NCc1ccccc1 [compound 225]	4.3 ± 0.67
C=CCN1CC(=O)N2[C@@H](Cc3ccc(O)cc3)C(=O)N(Cc3cccc(Br)n3)C[C@@H]2N1C(=O)NCc1ccccc1 [compound 177]	2.37 ± 0.35
C=CCN1CC(=O)N2[C@@H](Cc3ccc(O)cc3)C(=O)N(Cc3cccc4c(Cl)c[nH]c34)C[C@@H]2N1C(=O)NCc1ccccc1 [compound 19]	0.43 ± 0.08
C#Cc1ccc(CNC(=O)N2[C@H]3CN(Cc4cccc(OC)c4OC)C(=O)[C@H](Cc4ccc(O)cc4)N3C(=O)CN2CC=C)cc1 [compound 184]	2.56 ± 0.29
C=CCN1CC(=O)N2[C@@H](Cc3ccc(O)cc3)C(=O)N(Cc3cccc(-c4cccc(NC(C)=O)c4)c3)C[C@@H]2N1C(=O)NCc1ccccc1 [compound 18]	0.42 ± 0.12
C=CCN1CC(=O)N2[C@@H](Cc3ccc(O)cc3)C(=O)N(Cc3cccc4c(C)c(-c5ccccc5F)n(S(=O)(=O)c5ccccc5)c34)C[C@@H]2N1C(=O)NCc1ccccc1 [compound 63]	0.82 ± 0.25
C=CCN1CC(=O)N2[C@@H](Cc3ccc(O)cc3)C(=O)N(Cc3cccc(C(=O)Nc4cc[nH]n4)c3)C[C@@H]2N1C(=O)NCc1ccccc1 [compound 260]	8.43 ± 2.07
C=CCN1CC(=O)N2C(Cc3ccc(O)cc3)C(=O)N(Cc3cccc(-c4ccccn4)c3)C[C@@H]2N1C(=O)NCc1ccccc1 (stereo partly shown) [compound 61]	0.8 ± 0.07
C=CCN1CC(=O)N2[C@@H](Cc3ccc(O)cc3)C(=O)N(Cc3ccc(F)c(-c4cccnc4)c3)C[C@@H]2N1C(=O)NCc1ccccc1 [compound 28]	0.52 ± 0.06
C=CCN1CC(=O)N2[C@@H](Cc3ccc(O)cc3)C(=O)N(Cc3cccc(NC(C)=O)c3)C[C@@H]2N1C(=O)NCc1ccccc1 [compound 102]	1.25 ± 0.21
C=CCN1CC(=O)N2[C@@H](Cc3ccc(O)cc3)C(=O)N(Cc3cccc(-c4ccc(OC)nc4)c3)C[C@@H]2N1C(=O)NCc1ccccc1 [compound 121]	1.53 ± 0.17
C=CCN1CC(=O)N2[C@@H](Cc3ccc(O)cc3)C(=O)N(Cc3cccc(C#N)c3)C[C@@H]2N1C(=O)NCc1ccccc1 [compound 132]	1.71 ± 0.28
C=CCN1CC(=O)N2[C@@H](Cc3ccc(O)cc3)C(=O)N(Cc3cccc(-c4ccc(OC)cc4)c3)C[C@@H]2N1C(=O)NCc1ccccc1 [compound 140]	1.91 ± 0.24
C=CCN1CC(=O)N2[C@@H](Cc3ccc(O)cc3)C(=O)N(Cc3ccc(OC)c(F)c3)C[C@@H]2N1C(=O)NCc1ccccc1 [compound 193]	2.86 ± 0.49
C=CCN1CC(=O)N2[C@@H](Cc3ccc(O)cc3)C(=O)N(Cc3ccc(F)c4scnc34)C[C@@H]2N1C(=O)NCC1CCCCC1 [compound 238]	49.8 ± 4.8
C=CCN1CC(=O)N2[C@@H](Cc3ccc(O)cc3)C(=O)N(Cc3ccc4ncoc4c3)C[C@@H]2N1C(=O)NCc1ccccc1 [compound 228]	4.51 ± 0.72
C=CCN1CC(=O)N2[C@@H](Cc3ccc(O)cc3)C(=O)N(Cc3cccc(-c4cccnc4F)c3)C[C@@H]2N1C(=O)NCc1ccccc1 [compound 7]	0.26 ± 0.08
C=CCN1CC(=O)N2[C@@H](Cc3ccc(O)cc3)C(=O)N(Cc3cccc4c3ncn4C(=O)CNC(=O)OC(C)(C)C)C[C@@H]2N1C(=O)NCc1ccccc1 [compound 99]	1.17 ± 0.27
C=CCN1CC(=O)N2[C@@H](Cc3ccc(O)cc3)C(=O)N(Cc3ccc(F)c(Br)c3)C[C@@H]2N1C(=O)NCc1ccccc1 [compound 16]	0.39 ± 0.05

SMILES	IC50 [µM]
C=CCN1CC(=O)N2[C@@H](Cc3ccc(O)cc3)C(=O)N(Cc3cccc4c(=O)ccoc34)C[C@@H]2N1C(=O)NCc1ccccc1 [compound 87]	1.01 ± 0.24
C=CCN1CC(=O)N2[C@@H](Cc3ccc(O)cc3)C(=O)N(Cc3cccc(C(N)=O)n3)C[C@@H]2N1C(=O)NCc1ccccc1 [compound 168]	2.01 ± 0.2
C=CCN1CC(=O)N2[C@@H](Cc3ccc(OS(=O)(=O)NC(=O)OCCN(C)C)cc3)C(=O)N(Cc3cccc4c(C(=O)C5CC5)c[nH]c34)C[C@@H]2N1C(=O)NCc1ccccc1 [compound 220]	33.1 ± 4.07
C=CCN1CC(=O)N2[C@@H](Cc3ccc(O)cc3)C(=O)N(Cc3cccc(C#N)c3F)C[C@@H]2N1C(=O)NCc1ccccc1 [compound 97]	1.13 ± 0.05
C=CCN1CC(=O)N2[C@@H](Cc3ccc(O)cc3)C(=O)N(Cc3cccnc3-c3ccccc3OC)C[C@@H]2N1C(=O)NCc1ccccc1 [compound 165]	17.2 ± 4.11
C=CCN1CC(=O)N2[C@@H](Cc3ccc(O)cc3)C(=O)N(Cc3cccc(C(=O)N(C)C)c3)C[C@@H]2N1C(=O)NCc1ccccc1 [compound 240]	5.41 ± 0.89
C=CCN1CC(=O)N2[C@@H](Cc3ccc(O)cc3)C(=O)N(Cc3ccccc3N(C)Cc3ccccc3)C[C@@H]2N1C(=O)NCc1ccccc1 [compound 128]	1.61 ± 0.59
C=CCN1CC(=O)N2[C@@H](Cc3ccc(O)cc3)C(=O)N(Cc3cccc4c3ncn4CCC)C[C@@H]2N1C(=O)NCc1ccccc1 [compound 71]	0.9 ± 0.08
C=CCN1CC(=O)N2[C@@H](Cc3ccc(O)cc3)C(=O)N(Cc3cccc(C(=O)NCCO)c3)C[C@@H]2N1C(=O)NCc1ccccc1 [compound 256]	7.2 ± 1.06
C=CCN1CC(=O)N2[C@@H](Cc3ccc(O)cc3)C(=O)N(Cc3csc4ccc(NCc5ccccc5)cc34)C[C@@H]2N1C(=O)NCc1ccccc1 [compound 55]	0.74 ± 0.08
C=CCN1CC(=O)N2[C@@H](Cc3ccc(O)cc3)C(=O)N(Cc3cccc4c3ccn4S(=O)(=O)c3ccc(C)cc3)C[C@@H]2N1C(=O)NCc1ccccc1 [compound 47]	0.69 ± 0.19
C=CCN1CC(=O)N2[C@@H](Cc3ccc(O)cc3)C(=O)N(Cc3cccc(-c4ccc(O)cc4)n3)C[C@@H]2N1C(=O)NCc1ccccc1 [compound 248]	6.71 ± 1.57
C=CCN1CC(=O)N2[C@@H](Cc3ccc(O)cc3)C(=O)N(Cc3csc4ccc(NC(N)=O)cc34)C[C@@H]2N1C(=O)NCc1ccccc1 [compound 195]	20.9 ± 3.94
C=CCN1CC(=O)N2[C@@H](Cc3ccc(O)cc3)C(=O)N(Cc3cccc(-c4cccnc4OC)c3)C[C@@H]2N1C(=O)NCc1ccccc1 [compound 98]	1.17 ± 0.15
C=CCN1CC(=O)N2[C@@H](Cc3ccc(O)cc3)C(=O)N(Cc3cccc(OC)c3OC3Cc4ccccc4C3)C[C@@H]2N1C(=O)NCc1ccccc1 [compound 226]	4.33 ± 0.5
C=CCN1CC(=O)N2[C@@H](Cc3ccc(O)c(Br)c3)C(=O)N(Cc3cccc4scnc34)C[C@@H]2N1C(=O)NCc1ccccc1 [compound 235]	40.7 ± 6.4
C=CCN1CC(=O)N2[C@@H](Cc3ccc(O)cc3)C(=O)N(Cc3cn(S(=O)(=O)c4ccc(C)cc4)c4ccccc34)C[C@@H]2N1C(=O)NCc1ccccc1 [compound 211]	3.61 ± 0.47
C=CCN1CC(=O)N2[C@@H](Cc3ccc(O)cc3)C(=O)N(Cc3cccc4c(C(C)=O)c[nH]c34)C[C@@H]2N1C(=O)NCc1ccccc1 [compound 3]	0.098 ± 0.014
C=CCN1CC(=O)N2[C@@H](Cc3ccc(O)cc3)C(=O)N(Cc3cccc(C(=O)NC)n3)C[C@@H]2N1C(=O)NCc1ccccc1 [compound 48]	0.7 ± 0.26
C=CCN1CC(=O)N2[C@@H](Cc3ccc(NC(N)=O)cc3)C(=O)N(Cc3cccc4scnc34)C[C@@H]2N1C(=O)NCc1ccccc1 [compound 162]	15.1 ± 3.34
C=CCN1CC(=O)N2C(CN(Cc3cccc(C#CC(C)(C)C)n3)C(=O)[C@@H]2Cc2ccc(O)cc2)N1C(=O)NCc1ccccc1 (stereo partly shown) [compound 116]	1.43 ± 0.26
C=CCN1CC(=O)N2[C@@H](Cc3ccc(O)cc3)C(=O)N(Cc3ccc(OC)c(Cl)c3)C[C@@H]2N1C(=O)NCc1ccccc1 [compound 117]	1.44 ± 0.22

Same assay, conditions: Homo sapiens, SW480; read-out: RGA, IC50 (μM) TopF

SMILES	IC50 [µM]
C=CCN1CC(=O)N2C(Cc3ccc(OP(=O)(O)O)cc3)C(=O)N(Cc3cccc4sc(N)nc34)C[C@@H]2N1C(=O)NCc1ccccc1 (stereo partly shown) [compound 14]	0.37 ± 0.07
C=CCN1CC(=O)N2[C@@H](Cc3ccc(OP(=O)(O)O)cc3)C(=O)N(Cc3ccc(F)c4scnc34)C[C@@H]2N1C(=O)NCc1ccc2c(c1)OCO2 [compound 77]	0.94 ± 0.07
C=CCN1CC(=O)N2[C@@H](Cc3ccc(OP(=O)(O)O)cc3)C(=O)N(Cc3csc4cc(N)ccc34)C[C@@H]2N1C(=O)NCc1ccccc1 [compound 24]	0.48 ± 0.11
C=CCOc1ccc(CN2C[C@H]3N(C(=O)CN(CC=C)N3C(=O)NCc3ccccc3)[C@@H](Cc3ccc(OP(=O)(O)O)cc3)C2=O)cc1 [compound 136]	1.83 ± 0.32
C=CCN1CC(=O)N2[C@@H](Cc3ccc(OP(=O)(O)O)cc3)C(=O)N(Cc3cccc(OC)c3OC)C[C@@H]2N1C(=O)NCc1ccccc1 [compound 31]	0.54 ± 0.08
C=CCN1CC(=O)N2[C@@H](Cc3ccc(O)cc3)C(=O)N(Cc3ccc4cc[nH]c4c3)C[C@@H]2N1C(=O)NCc1ccccc1 [compound 223]	4.01 ± 0.96

Same assay, conditions: TopFlash reporter gene assay, inhibition of Wnt signaling; read-out: RGA, IC50 (μM) TopF

SMILES	IC50 [µM]
C=CCN1CC(=O)N2[C@@H](Cc3ccc(O)cc3)C(=O)N(Cc3cccc(-c4nccs4)c3)C[C@@H]2N1C(=O)NCc1ccccc1 [compound 133]	1.73 ± 0.22
C=CCN1CC(=O)N2[C@@H](Cc3ccc(O)cc3)C(=O)N(Cc3cccc(C(=O)NC4CCCC4)c3)C[C@@H]2N1C(=O)NCc1ccccc1 [compound 266]	9.43 ± 1.65
C=CCN1CC(=O)N2[C@@H](Cc3ccc(O)cc3)C(=O)N(Cc3ccc(F)c4scnc34)C[C@@H]2N1C(=O)NCc1cccs1 [compound 171]	2.1 ± 0.34

From US8080657B2, “Compounds of reverse turn mimetics and the use thereof” (Choongwae Pharma Corporation, priority 2008, dated 2011)
